Reference: patent US20090054454A1, “BENZOFURANYL- AND BENZOTHIENYL- PIPERAZINYL QUINOLINES AND METHODS OF THEIR USE” (priority 2007, published 2009)
Structures can show the parent of a compound that is named as a salt.

Tests used:
[1] = biological target: Human 5-HT Transporter (Homo sapiens, UniProt P31645); experiment: Inhibition of 3H-5-HT Uptake by Cells Possessing the Human 5-HT Transporter (HC 5HT Transporter), Jar cells; settings: HC-5HTC Transporter Ki (nM), Jar cells treated with staurosporine
Sequence of Human 5-HT Transporter (P31645 whole entry): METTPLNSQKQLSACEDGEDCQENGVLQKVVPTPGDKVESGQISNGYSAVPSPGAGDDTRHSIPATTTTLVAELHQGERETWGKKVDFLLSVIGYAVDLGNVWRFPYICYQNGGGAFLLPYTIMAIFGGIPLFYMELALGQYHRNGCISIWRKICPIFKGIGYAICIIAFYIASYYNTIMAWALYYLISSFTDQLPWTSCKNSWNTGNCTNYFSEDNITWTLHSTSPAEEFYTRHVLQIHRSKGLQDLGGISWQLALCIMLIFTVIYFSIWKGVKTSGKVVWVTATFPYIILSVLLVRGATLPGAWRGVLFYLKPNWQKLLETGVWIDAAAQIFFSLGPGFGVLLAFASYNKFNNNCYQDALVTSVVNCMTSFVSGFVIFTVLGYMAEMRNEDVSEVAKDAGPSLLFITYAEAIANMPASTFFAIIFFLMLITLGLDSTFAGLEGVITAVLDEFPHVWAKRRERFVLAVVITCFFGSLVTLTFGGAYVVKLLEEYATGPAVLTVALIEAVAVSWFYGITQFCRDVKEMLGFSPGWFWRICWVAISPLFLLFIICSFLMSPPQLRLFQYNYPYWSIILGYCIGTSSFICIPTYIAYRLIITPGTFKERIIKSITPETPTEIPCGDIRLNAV

Row | melting point [°C] | Ki [1] [nM] | Compound
1 | 248 |  | COc1cccc2c(CCN3CCN(c4cc(Cl)cc5cccnc45)CC3)coc12 (as salt: HCl) [Compound 20, 8-{4-[2-(7-methoxy-1-benzofuran-3-yl)ethyl]-1-piperazinyl}-6-chloro-quinoline]
2 | 192 |  | COc1cccc2c(C(C)CN3CCN(c4cccc5cccnc45)CC3)coc12 (centres unmarked) (as salt: HCl) [Compound 31, 8-{4-[2-(7-methoxy-1-benzofuran-3-yl)propyl]-1-piperazinyl}quinoline]
3 | 55 to 58 |  | COc1cccc2c(C(C)CN3CCN(c4cc(Cl)cc5cccnc45)CC3)coc12 (centres unmarked) (as salt: HCl) [Compound 33, 8-{4-[2-(7-methoxy-1-benzofuran-3-yl)propyl]-1-piperazinyl}-6-chloro-quinoline]
4 | 78 | 43.6 | COc1ccc2occ(CCN3CCN(c4cccc5cccnc45)CC3)c2c1 [Compound 21, 8-{4-[2-(5-methoxy-1-benzofuran-3-yl)ethyl]-1-piperazinyl}-quinoline]
5 | 72 | 106 | COc1ccc2occ(CCN3CCN(c4cc(Cl)cc5cccnc45)CC3)c2c1 [Compound 22, 8-{4-[2-(5-methoxy-1-benzofuran-3-yl)ethyl]-1-piperazinyl}-6-chloro-quinoline]
6 | 164 to 165 | 338 | Clc1cc(N2CCN([C@H]3CC[C@@H](c4csc5ccccc54)CC3)CC2)c2ncccc2c1 [Compound 41, 8-{4-[4-cis-(1-benzothien-3-yl)cyclohexyl]-1-piperazinyl}-6-chloroquinoline]
7 | 143 to 144 | 184 | Clc1cc(N2CCN([C@H]3CC[C@H](c4csc5ccccc54)CC3)CC2)c2ncccc2c1 [Compound 42, 8-{4-[4-trans(1-benzothien-3-yl)cyclohexyl]-1-piperazinyl}-6-chloroquinoline]
8 | 147 to 151 | 1440 | Fc1cc(N2CCN([C@H]3CC[C@@H](c4csc5ccccc54)CC3)CC2)c2ncccc2c1 [Compound 43, 8-{4-[4-cis(1-benzothien-3-yl)cyclohexyl]-1-piperazinyl}-6-fluoroquinoline]
9 | 195 | 1620 | Fc1cc(N2CCN([C@H]3CC[C@H](c4csc5ccccc54)CC3)CC2)c2ncccc2c1 [Compound 44, 8-{4-[4-trans(1-benzothien-3-yl)cyclohexyl]-1-piperazinyl}-6-fluoroquinoline]
10 | 148 to 150 | 1080 | COc1cc(N2CCN([C@H]3CC[C@@H](c4csc5ccccc54)CC3)CC2)c2ncccc2c1 [Compound 45, 8-{4-[4-cis(1-benzothien-3-yl)cyclohexyl]-1-piperazinyl}-6-methoxyquinoline]
11 | 166 to 168 | 802 | COc1cc(N2CCN([C@H]3CC[C@H](c4csc5ccccc54)CC3)CC2)c2ncccc2c1 [Compound 46, 8-{4-[4-trans (1-benzothien-3-yl)cyclohexyl]-1-piperazinyl}-6-methoxyquinoline]
12 | 143 to 144 | 739 | Fc1cc(N2CCN([C@H]3CC[C@H](c4csc5ccc(F)cc54)CC3)CC2)c2ncccc2c1 [Compound 48, 6-fluoro-8-{4-[4-trans(5-fluoro-1-benzothien-3-yl)cyclohexyl]piperazin-1-yl}quinoline]
13 | 192 to 197 | 1150 | Fc1ccc2scc([C@H]3CC[C@@H](N4CCN(c5ccc(Cl)c6cccnc56)CC4)CC3)c2c1 [Compound 51, 5-chloro-8-{4-[4-cis(5-fluoro-1-benzothien-3-yl)cyclohexyl]piperazin-1-yl}quinoline]
14 | 142 to 144 | 3910 | Fc1ccc(N2CCN([C@H]3CC[C@@H](c4coc5ccccc54)CC3)CC2)c2ncccc12 [Compound 53, 8-{4-[4-cis(1-benzofuran-3-yl)cyclohexyl]-1-piperazinyl}-5-fluoroquinoline]
15 | 162 to 164 | 220 | Fc1ccc(N2CCN([C@H]3CC[C@H](c4coc5ccccc54)CC3)CC2)c2ncccc12 [Compound 54, 8-{4-[4-trans(1-benzofuran-3-yl)cyclohexyl]-1-piperazinyl}-5-fluoroquinoline]
16 | 195 to 197 | 337 | Fc1cc(N2CCN([C@H]3CC[C@H](c4coc5ccccc54)CC3)CC2)c2ncccc2c1 [Compound 56, 8-{4-[4-trans(1-benzofuran-3-yl)cyclohexyl]-1-piperazinyl}-6-fluoroquinoline]
17 | 143 to 146 | 3040 | COc1cccc2c1occ2[C@H]1CC[C@@H](N2CCN(c3ccc(F)c4cccnc34)CC2)CC1 [Compound 57, 5-fluoro-8-{4-[4-cis(7-methoxy-1-benzofuran-3-yl)cyclohexyl]-1-piperazinyl}quinoline]
18 | 75 to 83 | 455 | COc1cccc2c1occ2[C@H]1CC[C@@H](N2CCN(c3cc(F)cc4cccnc34)CC2)CC1 [Compound 59, 6-fluoro-8-{4-[4-cis(7-methoxy-1-benzofuran-3-yl)cyclohexyl]-1-piperazinyl}quinoline]
19 | 195 to 197 | 212 | COc1cccc2c1occ2[C@H]1CC[C@H](N2CCN(c3cc(F)cc4cccnc34)CC2)CC1 [Compound 60, 6-fluoro-8-{4-[4-trans(7-methoxy-1-benzofuran-3-yl)cyclohexyl]-1-piperazinyl}quinoline]
20 | 66 to 67 | 96.8 | COc1cccc2c1occ2[C@H]1CC[C@@H](N2CCN(c3cccc4cccnc34)CC2)CC1 [Compound 61, 8-{4-[4-cis(7-methoxy-1-benzofuran-3-yl)cyclohexyl]-1-piperazinyl}quinoline]
21 | 195 to 197 | 38 | COc1cccc2c1occ2[C@H]1CC[C@H](N2CCN(c3cccc4cccnc34)CC2)CC1 [Compound 62, 8-{4-[4-trans(7-methoxy-1-benzofuran-3-yl)cyclohexyl]-1-piperazinyl}quinoline]
22 | 153 to 160 | 1200 | COc1ccc2occ([C@H]3CC[C@@H](N4CCN(c5cc(F)cc6cccnc56)CC4)CC3)c2c1 [Compound 67, 6-fluoro-8-{4-[4-cis(5-methoxy-1-benzofuran-3-yl)cyclohexyl]piperazin-1-yl}quinoline]
23 | 152 to 155 | 3290 | COc1ccc2occ([C@H]3CC[C@H](N4CCN(c5cc(F)cc6cccnc56)CC4)CC3)c2c1 [Compound 68, 6-fluoro-8-{4-[4-trans(5-methoxy-1-benzofuran-3-yl)cyclohexyl]piperazin-1-yl}quinoline]
24 | 91 to 93 |  | Fc1cc(N2CCN(C3CCC(c4cc5ccccc5o4)CC3)CC2)c2ncccc2c1 (centres unmarked) [Compound 69, 8-[4-(4-benzofuran-2-yl-yclohexyl)-piperazin-1-yl]-6-fluoro-quinoline]
25 | 184 to 186 | 3000 | COc1cc(N2CCN([C@H]3CC[C@@H](c4cc5ccccc5s4)CC3)CC2)c2ncccc2c1 [Compound 70]
26 | 193 to 194 |  | COc1cc(N2CCN([C@H]3CC[C@H](c4cc5ccccc5s4)CC3)CC2)c2ncccc2c1 [Compound 71]
